In patent US20220202801A1, “USE OF COMPOUND IN PREPARATION OF DRUG FOR TREATING ATHEROSCLEROSIS” (GenEros Biopharma Ltd., priority 2019, published 2022):

Legend:
[1] = system: atherosclerosis model induced by high-fat diet in ApoE knockout mice; assay: Ratio of atherosclerotic plaque area to total inner wall area of the aorta (En-Face, oil red; Example 2); format: in vivo; conditions: for Mean of Plaque Ratio (plaque area to total inner wall area of aorta): high-fat diet; for symptoms of atherosclerosis under therapeutic intervention (mainly plaque area ratio): different doses, Example 2
Text: (§1) Methods: A total of 130 SPF grade C57BL/6 ApoE −/− model male mice aged 8 weeks were purchased from Charles River Laboratories (Beijing, China) (animal license number: SCXK (Beijing) 2016-0001, animal qualification certificate No.: 11400700331337). After one week of acclimatization in a SPF-grade animal facility, the animals with less weights were discarded and the rest was randomly divided into 11 groups, with 8 animals in each group. Except for the healthy control group, the rest were fed with 10% high-fat food (the first day of the high-fat diet was recorded as D1). Starting from the 8th week of the high-fat diet, each group of animals was orally given solvents or corresponding drugs, and the volume of administration was 10 ml/kg, once a day for 8 weeks. Animals were observed and administered by gavage once a day and the body weight were measured once a week for 56 days. […] The store solution of the test samples was dissolved in dimethyl sulfoxide solution and prepared with 30% PEG300.
Immediately after blood was taken from the heart, it was perfused through the left ventricle with 20 ml of normal saline. After bloodletting, the heart and aorta (from the aortic arch to the iliac artery) were isolated. The isolated artery was cut longitudinally from the aortic arch to the iliac artery, fixed in 4% paraformaldehyde for 30 minutes, synchronized with 60% isopropanol for 10 minutes, stained in 60% oil red for 30 minutes, and washed by 60% isopropanol 3 times, 5 minutes each time. Finally, the colored aorta was washed with deionized water and photographed. The proportion of the red plaque area was measured by Image Pro Plus 6.0 (Media Cybernetics, MD, US). The heart samples were fixed in 4% paraformaldehyde solution overnight and then placed in sucrose solution for dehydration. Then, it was embedded with OCT (Sakura, Japan) under a stereo microscope and made into 7 μm frozen sections. After HE staining, the slices were used for routine pathological examination. The outflow tract images were collected under an optical microscope at 4* magnification, and 4*, 10*, 20* and 40* magnification eyepieces were used for high-quality morphological observation. The detection standard referred to the histological classification standard of human atherosclerosis disease.
Evaluate the effect of different therapeutic drugs by the ratio of the area of atherosclerotic plaque to the total area of the inner wall of the aortic vessel (En-Face)
We adopted the widely accepted standard for the severity of arteriosclerosis in animal models, and analyzed the area of all plaques on the inner wall of the aorta. […] FIGS. 46A and 46B are histograms of the ratios of plaque area on the inner wall of the aorta in each treatment group. The values in FIGS. 46A and 46B are the ratios of plaques to the total area of the inner wall in each group, and the error is standard error±SEM. The statistical significance analysis is as follows: ***P<0.001 compared with the normal control group; #P<0.05 compared with the vehicle group; ##P<0.01, ###P<0.001, compared with the vehicle group through one-way ANOVA Dunnett's test; & represents P<0.05, compared with the vehicle group by t test.

ApoE knockout mice [2] = assay: Blood lipid metabolism TG, TCHO, HDL-c, LDL-c (Example 2); format: in vivo
Text: as §1
At the end of the experiment, the animals were euthanized by inhalation of carbon dioxide. Blood was taken from the heart, and centrifuged at 3000 r/min at a low temperature centrifuge for 10 min to separate the serum. The levels of total cholesterol TC, triglyceride TG, high-density lipoprotein HDL-C, and low-density lipoprotein LDL-C were measured, and the remaining serum was stored in a refrigerator at −80° C.
Before the start of the experiment, animal blood samples were analyzed for blood lipid metabolism, including conventional triglyceride (TG), total cholesterol (TCHO), high-density lipoprotein (HDL-c) and low-density lipoprotein (LDL-c). After high-fat or ordinary food feeding for 8 weeks, the blood lipid levels were measured again. After the drug treatment was started, blood lipid measurements were performed every four weeks until the end of the experiment.

ICAM-1 = assay: Immunohistochemistry of aortic wall, ICAM-1; format: in vivo, mice; conditions: IHC-P×400, single animal micrograph, 20 mg/kg
Text: (§2) Methods: SPF grade C57BL/6 ApoE −/−model mice were provided by Guangdong Medical Experimental Animal Center, laboratory animal production license No. SOCK (Guangdong) 2013-0002. Laboratory animal quality certificate number: 44007200048196). Mice were half male and half female, aged 8 to 12 weeks, and 72 animals in total. After four weeks of housing in a SPF-level animal facility, animals with less body weights were disposed. A total of 64 animals were randomly divided into 8 groups, 8 in each group, fed with 10% high-fat food, and received with different treatments. Animals were observed and administered with the medicines by gavage once daily. The body weights were measured once a week and continued for 58 days. […] The test sample was dissolved in dimethyl sulfoxide solution and prepared with 30% PEG300.
(§3) After blood collection, the animals were sacrificed, and the aortic arch together with the heart and thoracic aorta were fixed with neutral formaldehyde and subject to pathological examination. The abdominal aorta was collected and quick-frozen in liquid nitrogen, and stored at −80° C.
(§4) c) Immunohistochemistry: The thoracic aorta was sliced and detected by immunohistochemistry for the expression of CD68, intercellular adhesion molecule-1 (ICAM-1), and vascular cell adhesion Molecule-1 (VCAM-1).

[3] = Body weight of ApoE knockout mice on high-fat food (Example 1); format: in vivo; conditions: 20 mg/kg gavage QD
Text: as §2
Statistical analysis: Data were expressed as the mean plus or minus the standard deviation (x± s), and analyzed by SPSS21.0 statistical software. The weight data of each group were compared by repeated measures analysis of variance; the blood lipid levels of the statin treatment group were compared with the model control group by independent sample T test; the blood lipid levels of the test samples A and B were compared with the model control group by one-way analysis of variance, and LSD method was used for the comparison among groups. The level of test is α=0.05.

[4] = system: atherosclerotic lesions in ApoE knockout mice; assay: Aortic HE and oil red O staining, atherosclerotic lesion scores (Example 1); format: in vivo
Text: as §2, §3
a) HE staining: aortic arch was sliced and HE stained. The plaques were observed under optical microscope.
b) Oil red O staining: aortic arch was sliced and oil red O stained. The plaques were observed under optical microscope.

VCAM-1 = assay: Immunohistochemistry of aortic wall, VCAM-1; format: in vivo, mice; conditions: IHC-P×400, single animal micrograph, 20 mg/kg
Text: as §2, §3, §4

CD68 = assay: Immunohistochemistry of aortic wall, CD68; format: in vivo, mice; conditions: IHC-P×400, single animal micrograph, 20 mg/kg
Text: as §2, §3, §4

ApoE knockout mice [5] = assay: Four blood lipids in serum of ApoE knockout mice (Example 1); format: in vivo; conditions: serum
Text: as §2
At the end of the experiment, animals were anesthetized with pentobarbital sodium. Blood was collected from the orbital venous plexus, and centrifuged at 3000 r/min at a low temperature for 10 min to separate the serum. The levels of total cholesterol TC, triglyceride TG, high-density lipoprotein HDL-C, and low-density lipoprotein LDL-C were measured, and the remaining serum was stored in a refrigerator at −80° C.
Statistical analysis: Data were expressed as the mean plus or minus the standard deviation (x± s), and analyzed by SPSS21.0 statistical software. […] The level of test is α=0.05.

[6] = of 8 animals, 20 mg/kg body weight
[7] = half male and female, 20 mg/kg body weight
[8] = ♀, 20 mg/kg gavage QD, 58 days, 20 mg/kg
[9] = ♀, 20 mg/kg gavage QD, 58 days, listed as statin, 20 mg/kg
[10] = ♂, 20 mg/kg gavage QD, 58 days, 20 mg/kg
[11] = ♂, 20 mg/kg gavage QD, 58 days, listed as statin, 20 mg/kg

## Cc1ccc(CC(=O)N2CCC(n3c(=O)[nH]c4ccccc43)CC2)cc1 [Sample X7, 1-(1-(2-(p-tolyl)acetyl)piperidin-4-yl)-1H-benzo[d]imidazole-2(3H)-one]
[1]; 5 mpk PO QD 8 weeks
  Mean of Plaque Ratio (plaque area to total inner wall area of aorta): 9.00%
[1]
  symptoms of atherosclerosis under therapeutic intervention (mainly plaque area ratio): significantly alleviate the symptoms of atherosclerosis
ApoE knockout mice [2]
  effect on high-density lipoprotein (HDL-c) level compared with the vehicle group: no obvious effect
  effect on low-density lipoprotein (LDL-c) level compared with the vehicle group: significantly reduce
  effect on total cholesterol (TCHO) level compared with the vehicle group: significantly reduce
  effect on triglyceride (TG) level compared with the vehicle group: significantly reduce

## CC(C)c1c(C(=O)Nc2ccccc2)c(-c2ccccc2)c(-c2ccc(F)cc2)n1CC[C@@H](O)C[C@@H](O)CC(=O)[O-].CC(C)c1c(C(=O)Nc2ccccc2)c(-c2ccccc2)c(-c2ccc(F)cc2)n1CC[C@@H](O)C[C@@H](O)CC(=O)[O-].[Ca+2] [Statin, Atorvastatin calcium, reference compound]
ICAM-1
  aorta (ICAM-1) signal expression in blood vessels: low to medium
[3]; d1, half male and female
  body weight: 25.1 ± 4.2 g
[3]; d1, ♀
  body weight: 21.2 ± 0.9 g
[3]; d1, ♂
  body weight: 28.9 ± 1.2 g
[3]; d8, half male and female
  body weight: 25.4 ± 3.8 g
[3]; d8, ♀
  body weight: 22.0 ± 0.6 g
[3]; d8, ♂
  body weight: 28.9 ± 0.9 g
[3]; d15, half male and female
  body weight: 25.3 ± 4.1 g
[3]; d15, ♀
  body weight: 21.5 ± 0.7 g
[3]; d15, ♂
  body weight: 29.0 ± 1.1 g
[3]; d22, half male and female
  body weight: 25.2 ± 4.2 g
[3]; d22, ♀
  body weight: 21.4 ± 0.6 g
[3]; d22, ♂
  body weight: 29.0 ± 1.4 g
[3]; d29, half male and female
  body weight: 25.2 ± 4.2 g
[3]; d29, ♀
  body weight: 21.4 ± 0.6 g
[3]; d29, ♂
  body weight: 29.1 ± 1.2 g
[3]; d36, half male and female
  body weight: 25.7 ± 3.8 g
[3]; d36, ♀
  body weight: 22.2 ± 0.9 g
[3]; d36, ♂
  body weight: 29.2 ± 1.0 g
[3]; d43, half male and female
  body weight: 26.0 ± 3.9 g
[3]; d43, ♀
  body weight: 22.4 ± 0.5 g
[3]; d43, ♂
  body weight: 29.6 ± 0.8 g
[3]; d50, half male and female
  body weight: 26.5 ± 3.7 g
[3]; d50, ♀
  body weight: 23.1 ± 0.9 g
[3]; d50, ♂
  body weight: 29.8 ± 0.6 g
[3]; d57, half male and female
  body weight: 26.4 ± 4.1 g
[3]; d57, ♀
  body weight: 22.7 ± 0.8 g
[3]; d57, ♂
  body weight: 30.0 ± 1.6 g
[3]; d58, half male and female
  body weight: 26.2 ± 3.8 g
[3]; d58, ♀
  body weight: 22.8 ± 0.5 g
[3]; d58, ♂
  body weight: 29.7 ± 1.4 g
[4]; [6]
  Mild n (number of animal cases with mild lesions): 0
  Moderate n (number of animal cases with moderate lesions): 3
  No lesion n (number of animal cases): 3
  Severe n (number of animal cases with severe lesions): 2
[4]; of 8 aortas examined, 20 mg/kg
  animals that had atherosclerosis (histological observation): 5 cases
[4]; score 0-3 per Table 8, 20 mg/kg body weight
  Scores (atherosclerotic lesion score, average of the group): 1.50 ± 1.31
VCAM-1
  aorta (VCAM-1) signal expression in blood vessels: low to medium
CD68
  aorta (CD68) signal expression in blood vessels: low to medium
ApoE knockout mice [5]; [7]
  LDL-C: 5.60 ± 1.19 mmol/L
  TC: 18.15 ± 2.38 mmol/L
ApoE knockout mice [5]; half male and female, 20 mg/kg body weight, 20 mg/kg
  TG: 0.71 ± 0.19 mmol/L
ApoE knockout mice [5]; half male and female, 20 mg/kg body weight, listed as statin, 20 mg/kg
  TG: lower
ApoE knockout mice [5]; ♀, 20 mg/kg gavage QD, 58 days
  LDL-C: 5.03 ± 0.57 mmol/L
ApoE knockout mice [5]; [8]
  HDL-C: 1.44 ± 0.09 mmol/L
  TC: 16.85 ± 1.76 mmol/L
  TG: 0.65 ± 0.06 mmol/L
ApoE knockout mice [5]; [9]
  HDL-C: reduced to varying degrees, but there was no statistical difference
  TC: reduced to varying degrees, but there was no statistical difference
  TG: reduced to varying degrees, but there was no statistical difference
ApoE knockout mice [5]; ♂, 20 mg/kg gavage QD, 58 days
  LDL-C: 6.17 ± 1.46 mmol/L
ApoE knockout mice [5]; [10]
  HDL-C: 1.92 ± 0.62 mmol/L
  TC: 19.45 ± 2.37 mmol/L
  TG: 0.78 ± 0.27 mmol/L
ApoE knockout mice [5]; [11]
  HDL-C: lower
  TC: lower
  TG: lower
ApoE knockout mice [2]
  effect on total cholesterol (TCHO) level compared with the vehicle group: reduce
  effect on triglyceride (TG) level compared with the vehicle group: increase

## O=C(Cc1ccc(C(F)(F)F)cc1)N1CCC(n2c(=O)[nH]c3ccccc32)CC1 [Sample X8, 1-(1-(2-(4-(trifluoromethyl)phenyl)acetyl)piperidin-4-yl)-1H-benzo[d]imidazole-2(3H)-one]
[1]; 5 mpk PO QD 8 weeks
  Mean of Plaque Ratio (plaque area to total inner wall area of aorta): 9.02%
[1]; 10 mpk PO QD 8 weeks
  Mean of Plaque Ratio (plaque area to total inner wall area of aorta): 6.93%
[1]
  symptoms of atherosclerosis under therapeutic intervention (mainly plaque area ratio): significantly alleviate the symptoms of atherosclerosis
ApoE knockout mice [2]
  effect on high-density lipoprotein (HDL-c) level compared with the vehicle group: no obvious effect
  effect on low-density lipoprotein (LDL-c) level compared with the vehicle group: significantly reduce
  effect on total cholesterol (TCHO) level compared with the vehicle group: significantly reduce
  effect on triglyceride (TG) level compared with the vehicle group: significantly reduce
